In patent US6713634B2, “Pyrroloazepine derivatives” (Daiichi Suntory Pharma Co., Ltd., priority 1995, dated 2004):

Key:
[1] = test system: α1 receptors; test: Anti-α1 action: tonic contraction of isolated thoracic aorta induced by 10^−5 M norepinephrine; settings: tonic contraction by 10^−5 M norepinephrine taken as 100%, guinea pig thoracic aorta
Procedure: The thoracic aorta of each Hartley male guinea pig (body weight: 300-500 g) was excised. A preparation cut in a helical form was suspended under 1 g load in a Magnus cylinder filled with the Tyrode solution which had been aerated with a gas mixture of 95% O2 and 5% CO2 and maintained at 37° C. Using an isometric transducer (“TB-612J”, manufactured by Nihon Kohden Corporation) and a pressure preamplifier (“AP-620G”, manufactured by Nihon Kohden Corporation), variations in tension were measured. The isometric tensions were recorded on a thermal pen-writing recorder (“WT-647G”, manufactured by Nihon Kohden Corporation). Taking the tonic contraction induced by 10^−5 M norepinephrine (NE) as 100%, the percent contractions upon addition of each test drug at 10^−8 M and 10^−7 M were determined as α1 action.

[2] = test system: serotonin-2 receptor; test: Anti-serotonin (5-HT) action: contraction of isolated superior mesenteric artery induced by 10^−5 M 5-HT; settings: contraction by 10^−5 M 5-HT taken as 100%, guinea pig superior mesenteric artery
Procedure: (1) Anti-Serotonin (5-HT) Action
A preparation cut in a helical form was suspended under resting tension of 0.3 g in a Magnus cylinder filled with the Tyrode solution which had been aerated with a gas mixture of 95% O2 and 5% CO2 and maintained at 37° C. Using an isometric transducer (“UL-10”, manufactured by SHINKOH K.K.) and a pressure preamplifier (“DSA-605A”, manufactured by SHINKOH K.K.), variations in tension were measured. The isometric tensions were recorded on a pen-writing recorder (“VP-6537A”, manufactured by NATIONAL K.K.). Taking the contraction induced by 10^−5 M serotonin (5-HT) as 100%, the percent contractions by 10^−5 M 5-HT in the presence of each test drug at 10^−8 M, 10^−7 M and 10^−6 M were determined as anti-5-HT action.

SMILES	Anti α1 action (% of Control) ([1]; test drug 10^−7 M)	Anti α1 action (% of Control) ([1]; test drug 10^−8 M)	Anti 5-HT action (% of Control) ([2]; test drug 10^−7 M)	Anti 5-HT action (% of Control) ([2]; test drug 10^−8 M)	Anti 5-HT action (% of Control) ([2]; test drug 10^−6 M)
Cn1ccc2c1C(=O)CCN(CCCN1CCC(c3noc4cc(F)ccc34)CC1)C2=O [Compound No. 50, 5-[3-[4-(6-fluoro-1,2-benzisoxazol-3-yl)piperidino]propyl]-1-methyl-1,4,5,6,7,8-hexahydropyrrolo[3,2-c]azepine-4,8-dione]	34.2 % of Control	67.1 % of Control	25.1 % of Control	67.5 % of Control	
Cn1ccc2c1C1(CCN(CCCN3CCN(c4ccc(F)cc4)CC3)C2=O)SCCS1 [Compound No. 52, 5-[3-[4-(4-fluorophenyl)piperazin-1-yl]propyl]-1-methyl-1,4,5,6,7,8-hexahydropyrrolo-[3,2-c]azepin-4-one-8-spiro-2′-(1′,3′-dithiolane)]	75.8 % of Control	96.8 % of Control	20.9 % of Control	75.5 % of Control	
Cn1ccc2c1C(=NO)CCN(CCCN1CCN(c3ccc(F)cc3)CC1)C2=O [Compound No. 53, 5-[3-[4-(4-fluorophenyl)piperazin-1-yl]propyl]-8-hydroxyimino-1-methyl-1,4,5,6,7,8-hexahydropyrrolo[3,2-c]azepin-4-one]	60.1 % of Control	86.1 % of Control	87.1 % of Control		48.2 % of Control
Cn1cc2c(c1)/C(=N\O)CCN(CCCN1CCN(c3ccc(F)cc3)CC1)C2=O [Compound No. 55, 5-[3-[4-(4-fluorophenyl)piperazin-1-yl]propyl]-8-[(Z)-hydroxyimino]-2-methyl-2,4,5,6,7,8-hexahydropyrrolo[3,4-c]azepin-4-one]	73.5 % of Control	97.6 % of Control	59.5 % of Control		11.0 % of Control
Cn1ccc2c1C(O)CCN(CCN1CCN(c3ccc(F)cc3)CC1)C2=O (stereo not drawn) [Compound No. 56, 5-[2-[4-(4-fluorophenyl)piperazin-1-yl]ethyl]-8-hydroxy-1-methyl-1,4,5,6,7,8-hexahydropyrrolo[3,2-c]azepin-4-one]	71.4 % of Control	96.7 % of Control	90.2 % of Control		47.9 % of Control
Cn1ccc2c1C(O)CCN(CCCN1CCN(c3ccc(F)cc3)CC1)C2=O (stereo not drawn) [Compound No. 57, 5-[3-[4-(4-fluorophenyl)piperazin-1-yl]propyl]-8-hydroxy-1-methyl-1,4,5,6,7,8-hexahydropyrrolo[3,2-c]azepin-4-one]	91.4 % of Control	100 % of Control	12.0 % of Control	54.6 % of Control	7.5 % of Control
Cc1cn(C)c2c1C(=O)N(CCCN1CCN(c3ccc(F)cc3)CC1)CCC2O (stereo not drawn) [Compound No. 59, 5-[3-[4-(4-fluorophenyl)piperazin-1-yl]propyl]-8-hydroxy-1,3-dimethyl-1,4,5,6,7,8-hexahydropyrrolo[3,2-c]azepin-4-one]	47.3 % of Control	81.6 % of Control	12.5 % of Control	48.5 % of Control	
O=C1c2ccn(-c3ccccc3)c2C(O)CCN1CCCN1CCN(c2ccc(F)cc2)CC1 (stereo not drawn) [Compound No. 61, 5-[3-[4-(4-fluorophenyl)piperazin-1-yl]propyl]-8-hydroxy-1-phenyl-1,4,5,6,7,8-hexahydropyrrolo[3,2-c]azepin-4-one]	39.4 % of Control	96.1 % of Control	74.3 % of Control		37.3 % of Control
O=C1c2ccn(Cc3ccccc3)c2C(O)CCN1CCCN1CCN(c2ccc(F)cc2)CC1 (stereo not drawn) [Compound No. 62, 1-benzyl-5-[3-[4-(4-fluorophenyl)piperazin-1-yl]propyl]-8-hydroxy-1,4,5,6,7,8-hexahydropyrrolo[3,2-c]azepin-4-one]	31.7 % of Control	95.0 % of Control	50.6 % of Control		11.1 % of Control
Cn1ccc2c1C(O)CCN(CCCN1CCC(c3ccccc3)CC1)C2=O (stereo not drawn) [Compound No. 73, 8-hydroxy-1-methyl-5-[3-(4-phenylpiperidino)propyl]-1,4,5,6,7,8-hexahydropyrrolo-[3,2-c]azepin-4-one]	94.0 % of Control	99.3 % of Control	54.7 % of Control	90.7 % of Control	14.9 % of Control
Cn1ccc2c1C(O)CCN(CCCN1CCC(C(=O)c3ccc(F)cc3)CC1)C2=O (stereo not drawn) [Compound No. 75, 5-[3-[4-(4-fluorobenzoyl)piperidino]-propyl]-8-hydroxy-1-methyl-1,4,5,6,7,8-hexahydropyrrolo[3,2-c]azepin-4-one]	70.3 % of Control	98.3 % of Control	71.7 % of Control		25.2 % of Control
COC1CCN(CCCN2CCN(c3ccc(Cl)cc3)CC2)C(=O)c2ccn(C)c21 (stereo not drawn) [Compound No. 76, 5-[3-[4-(4-chlorophenyl)piperazin-1-yl]propyl]-8-methoxy-1-methyl-1,4,5,6,7,8-hexahydropyrrolo[3,2-c]azepin-4-one]	88.1 % of Control	98.9 % of Control	35.5 % of Control		7.2 % of Control
Cn1ccc2c1C=CCN(CCCN1CCN(c3ccc(Cl)cc3)CC1)C2=O [Compound No. 79, 5-[3-[4-(4-chlorophenyl)piperazin-1-yl]propyl]-1-methyl-1,4,5,6-tetrahydropyrrolo[3,2-c]azepin-4-one]	58.1 % of Control	94.8 % of Control	31.8 % of Control	78.3 % of Control	
Cn1ccc2c1CCCN(CCCN1CCN(c3ccc(F)cc3)CC1)C2=O [Compound No. 82, 5-[3-[4-(4-fluorophenyl)piperazin-1-yl]propyl]-1-methyl-1,4,5,6,7,8-hexahydropyrrolo-[3,2-c]azepin-4-one]	37.6 % of Control	87.6 % of Control	8.4 % of Control	35.2 % of Control	
Cn1ccc2c1[C@H](O)CCN(CCCN1CCN(c3ccc(F)cc3)CC1)C2=O [Compound No. 84]	92.4 % of Control	100 % of Control	61.9 % of Control	82.0 % of Control	11.9 % of Control
